Assay results published in PMC4289655 (Antiviral Research, 2014).

Target: T1, UL98 (CMV alkaline nuclease) (Human herpesvirus 5 strain AD169, UniProt P16789)
T1 sequence (P16789 1-584): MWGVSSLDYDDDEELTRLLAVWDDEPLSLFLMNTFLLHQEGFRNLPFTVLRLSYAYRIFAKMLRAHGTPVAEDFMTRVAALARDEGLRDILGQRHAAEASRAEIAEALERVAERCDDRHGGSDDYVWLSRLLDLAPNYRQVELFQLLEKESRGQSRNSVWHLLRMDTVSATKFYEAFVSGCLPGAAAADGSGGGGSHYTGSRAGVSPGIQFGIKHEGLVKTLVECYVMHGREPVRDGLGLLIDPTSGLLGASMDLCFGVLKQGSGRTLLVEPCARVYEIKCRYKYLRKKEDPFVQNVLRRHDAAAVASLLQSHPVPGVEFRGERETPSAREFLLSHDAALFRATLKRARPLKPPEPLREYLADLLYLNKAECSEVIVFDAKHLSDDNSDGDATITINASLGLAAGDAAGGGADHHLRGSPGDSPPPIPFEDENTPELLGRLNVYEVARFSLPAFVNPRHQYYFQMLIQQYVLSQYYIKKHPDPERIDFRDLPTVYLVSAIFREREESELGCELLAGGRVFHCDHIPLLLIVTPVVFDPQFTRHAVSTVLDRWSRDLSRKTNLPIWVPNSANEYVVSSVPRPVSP
Test: TCA-soluble […] release from labeled E. coli duplex DNA
Assay type: biochemical

| SMILES | IC50 |
| --- | --- |
| Cc1cc(C)c(Nc2cc(S(=O)(=O)O)c(N)c3c2C(=O)c2ccccc2C3=O)c(C)c1 [atanyl blue PRL] | 4.5 ± 0.7 µM |
| CC(=O)Nc1ccc(Nc2cc(S(=O)(=O)O)c(N)c3c2C(=O)c2ccccc2C3=O)cc1 [acid blue 40] | 99 µM |
